Test results reported in patent US7199127B2, “Purine nucleosides” (United States of America, Represented by the Secretary, …, priority 2002, dated 2007).
Like-named read-outs stand apart in the source and are kept apart here.

Experiments:
rA1 adenosine receptor = biological target: T1, rA1 adenosine receptor (Rattus norvegicus, UniProt P25099); experiment: Binding of [3H]PIA to A1 (rat); conditions: Cheng-Prusoff
T1 construct: Striatal and forebrain tissues from Wistar rats were homogenized in ice-cold 50 mM Tris.HCl buffer; from tissue; host or cells: Wistar rat brain membranes (forebrain for A1 is my own knowledge)
T1 sequence (P25099 1-326): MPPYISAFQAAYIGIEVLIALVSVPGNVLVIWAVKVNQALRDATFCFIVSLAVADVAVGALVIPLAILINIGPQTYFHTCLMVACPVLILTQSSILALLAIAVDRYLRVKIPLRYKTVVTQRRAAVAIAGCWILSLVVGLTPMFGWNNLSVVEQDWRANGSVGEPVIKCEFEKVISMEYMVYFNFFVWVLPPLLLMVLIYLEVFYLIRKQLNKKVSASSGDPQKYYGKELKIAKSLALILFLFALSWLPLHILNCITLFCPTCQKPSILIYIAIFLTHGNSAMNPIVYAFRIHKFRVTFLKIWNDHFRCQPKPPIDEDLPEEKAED
Experimental: (§3) The binding of [^3H]PIA ((R)-N^6-(phenylisopropyl)adenosine) to A1 and the binding of [^3H]CGS21680(2-[[[4-(2–Carboxyethyl-phenyl)ethylamino]-5′-N-thylcarbamoyl)adenosine) to A2a were measured as described below. Adenosine deaminase was added while the membrane was cultured at 30° C. for 30 min with the radioactive ligand. The IC50 values of each compound were determined for at least 6 different concentrations.
(§4) Striatal and forebrain tissues from Wistar rats were homogenized in ice-cold 50 mM Tris.HCl buffer, pH 7.4, using an electric homogenizer. The homogenate was centrifuged at 20,000 g for 10 min at 4° C., and the pellet was washed in fresh buffer. The final pellet was stored at −80° C. until the binding experiments.

rA2a adenosine receptor = biological target: T2, rA2a adenosine receptor (Rattus norvegicus, UniProt P30543); experiment: Binding of [3H]CGS21680 to A2a (rat); conditions: for % Displacement rA2a: 10 μM, [3H]CGS21680
T2 construct: Striatal and forebrain tissues from Wistar rats were homogenized in ice-cold 50 mM Tris.HCl buffer; from tissue; host or cells: Wistar rat brain membranes (striatum for A2a is my own knowledge)
T2 sequence (P30543 whole entry): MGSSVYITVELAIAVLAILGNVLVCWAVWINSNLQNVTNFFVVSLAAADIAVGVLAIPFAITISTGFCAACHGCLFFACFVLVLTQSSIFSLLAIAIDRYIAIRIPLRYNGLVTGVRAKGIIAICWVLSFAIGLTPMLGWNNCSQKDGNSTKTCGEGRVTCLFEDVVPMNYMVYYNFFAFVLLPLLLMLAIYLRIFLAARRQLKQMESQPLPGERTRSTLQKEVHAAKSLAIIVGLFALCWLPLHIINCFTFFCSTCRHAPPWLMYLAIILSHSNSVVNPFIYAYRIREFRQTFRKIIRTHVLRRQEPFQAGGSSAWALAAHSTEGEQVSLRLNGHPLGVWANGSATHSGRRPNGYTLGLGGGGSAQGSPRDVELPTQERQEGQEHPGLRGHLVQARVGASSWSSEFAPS
Experimental: as §3, §4

hA1 adenosine receptor = biological target: T3, hA1 adenosine receptor (Homo sapiens, UniProt P30542); experiment: Binding of [3H]PIA to A1 (human); conditions: Cheng-Prusoff
T3 sequence (P30542 1-326): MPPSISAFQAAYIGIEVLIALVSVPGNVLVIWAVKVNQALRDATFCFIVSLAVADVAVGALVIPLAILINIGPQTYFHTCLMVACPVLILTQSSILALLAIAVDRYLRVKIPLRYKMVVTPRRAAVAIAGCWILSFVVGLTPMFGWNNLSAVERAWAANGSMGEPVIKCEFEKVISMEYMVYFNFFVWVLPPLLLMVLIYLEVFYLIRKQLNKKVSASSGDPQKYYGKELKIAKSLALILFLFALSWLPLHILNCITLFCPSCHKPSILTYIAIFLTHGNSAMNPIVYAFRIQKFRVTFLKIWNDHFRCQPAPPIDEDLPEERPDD
Experimental: as §3

hA2a adenosine receptor = hA2a adenosine receptor (Homo sapiens, UniProt P29274); experiment: Binding of [3H]CGS21680 to A2a (human); conditions: for Ki: [3H]CGS21680, Cheng-Prusoff
Chain of hA2a adenosine receptor (P29274 whole entry): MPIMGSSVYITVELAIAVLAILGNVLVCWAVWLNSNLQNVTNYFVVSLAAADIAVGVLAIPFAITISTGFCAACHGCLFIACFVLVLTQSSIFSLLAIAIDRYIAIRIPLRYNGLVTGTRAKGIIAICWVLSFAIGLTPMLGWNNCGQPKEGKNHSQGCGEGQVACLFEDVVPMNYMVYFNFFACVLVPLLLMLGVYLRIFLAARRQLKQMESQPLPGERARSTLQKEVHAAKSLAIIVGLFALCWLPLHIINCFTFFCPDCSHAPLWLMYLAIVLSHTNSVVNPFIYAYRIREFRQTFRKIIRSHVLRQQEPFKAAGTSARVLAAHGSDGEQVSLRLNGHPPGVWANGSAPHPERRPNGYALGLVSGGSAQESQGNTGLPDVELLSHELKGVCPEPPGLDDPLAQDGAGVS
Experimental: as §3

hA3 adenosine receptor = biological target: T4, hA3 adenosine receptor (Homo sapiens, UniProt P0DMS8); experiment: [125I]AB-MECA binding to membranes of CHO cells that express the A3 receptor; conditions: for Ki: [125I]AB-MECA, CHO cell membrane, Cheng-Prusoff
T4 construct: expressed in transfected cells; host or cells: CHO cells (ATCC CCL-61)
T4 sequence (P0DMS8 1-318): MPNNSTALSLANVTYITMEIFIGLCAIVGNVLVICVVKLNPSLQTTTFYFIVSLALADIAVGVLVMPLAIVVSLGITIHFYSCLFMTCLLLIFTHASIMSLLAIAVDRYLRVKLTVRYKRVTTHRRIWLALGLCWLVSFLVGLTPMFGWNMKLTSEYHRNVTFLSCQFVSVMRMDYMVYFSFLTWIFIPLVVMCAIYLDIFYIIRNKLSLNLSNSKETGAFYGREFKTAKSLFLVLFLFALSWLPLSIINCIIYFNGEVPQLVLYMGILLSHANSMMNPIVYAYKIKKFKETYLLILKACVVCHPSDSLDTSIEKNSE
Experimental: Chinese hamster ovary (CHO, ATCC; US Cell Strain Bank No. CCL-61) cells that express the A3 receptor were cultured at 37° C. in the presence of 5% carbon dioxide in F-12 culture medium (Gibco Company, USA) containing 10% fetal bovine serum (FBS) and penicillin/streptomycin (100 U/mL and 100 μg/mL), and used.
The inhibitor is first dissolved in dimethyl sulfoxide and diluted with buffer solution. The final concentration of DMSO should not exceed 1%. After culturing at 37° C. for 1 h, it was quickly filtered using a cell collector (TOMTEC Company, USA) and a GF/B filter (Whatman Company, USA). The test tube was rinsed three times with 3 mL of buffer solution, and the radioactivity was measured using a γ-counter.
CHO (Chinese hamster ovary) cells expressing recombinant the human A3AR were cultured in DMEM supplemented with 10% fetal bovine serum, 100 units/mL penicillin, 100 μg/mL streptomycin, 2 μmol/mL glutamine and 800 μg/mL geneticin. The CHO cells expressing rat A3ARs were cultured in DMEM and F 12 (1:1). Cells were harvested by trypsinization. After homogenization and suspension, cells were centrifuged at 500 g for 10 min, and the pellet was re-suspended in 50 mM Tris HCl buffer (pH 8.0) containing 10 mM MgCl2, 1 mM EDTA and 0.1 mg/mL CHAPS. The suspension was homogenized with an electric homogenizer for 10 sec, and was then re-centrifuged at 20,000 g for 20 min at 4° C. The resultant pellets were resuspended in buffer in the presence of 3 Units/mL adenosine deaminase, and the suspension was stored at −80° C. until the binding experiments. Striatal and forebrain tissues from Wistar rats were homogenized in ice-cold 50 mM Tris.HCl buffer, pH 7.4, using an electric homogenizer. The homogenate was centrifuged at 20,000 g for 10 min at 4° C., and the pellet was washed in fresh buffer. The final pellet was stored at −80° C. until the binding experiments.
The mixtures were incubated at 37° C. for 60 min. Binding reactions were terminated by filtration through Whatman GF/B filters under reduced pressure using a MT-24 cell harvester (Brandell, Gaithersburgh, Md., USA). Filters were washed three times with 9 mL ice-cold buffer. Radioactivity was determined in a Beckman 5500γ-counter.

ICR family mice = experiment: Toxicity test in mice; format: in vivo; conditions: mice, 20, 10 and 1 mg/kg peritoneally, observed for 24 h
Experimental: (§1) Animal studies were carried out to test the toxicity of the compounds pared in the present invention.
(§2) 25±5 g ICR family mice (Joongang Study Animal) and 235±10 g specific pathogen free (SPF) Sprague Dawley rats (Joongang Study Animal) were divided into 3 groups.

Sprague Dawley rats = experiment: Toxicity test in rats; format: in vivo; conditions: rats, 20, 10 and 1 mg/kg peritoneally, observed for 24 h
Experimental: as §1, §2

[1] = [3H]CGS21680, Cheng-Prusoff, read-out: Ki rA2a

Structure (SMILES) | Ki (rA1 adenosine receptor) [nM] | % Displacement rA2a (rA2a adenosine receptor) [%] | Ki (hA3 adenosine receptor) [nM] | Ki (rA2a adenosine receptor; [1]) [nM] | further results
CNC(=O)[C@H]1S[C@@H](n2cnc3c(N)nc(Cl)nc32)[C@H](O)[C@@H]1O [Compound 29] | 294 | <10 | 0.4 | – | Ki (hA1 adenosine receptor): 89.2 nM; Ki (hA2a adenosine receptor): 158 nM
Nc1nc(Cl)nc2c1ncn2[C@@H]1S[C@H](CO)[C@@H](O)[C@H]1O [Compound 25, (2R,3R,4S,5R)-2-(2-chloro-6-aminopurin-9-yl)-5-hydroxymethyltetrahygrothiophene-3,4-diol] | 238 | – | 4.9 | – | Ki (rA2a adenosine receptor): 705 nM
CNC(=O)[C@H]1S[C@@H](n2cnc3c(NC)nc(Cl)nc32)[C@H](O)[C@@H]1O [Compound 33, (2S,3S,4R,5R)-5-(2-chloro-6-methylaminopurin-9-yl)-3,4-dihydroxytetrahydrothiophene-2-carboxylic acid methyl amide] | 198 | – | – | 6340 | Ki (hA1 adenosine receptor): 1330 nM; % Displacement hA2a (hA2a adenosine receptor; 10 μM, [3H]CGS21680): 20%; A3 agonist activity (hA3 adenosine receptor; in words, compared with known compounds): most strong and selective A3 agonist activity among the known compounds; deaths (ICR family mice): no deaths were observed; symptoms (weight increase, feed intake) versus control group (ICR family mice): no other observable symptoms; deaths (Sprague Dawley rats): no deaths were observed; symptoms (weight increase, feed intake) versus control group (Sprague Dawley rats): no other observable symptoms
CNc1nc(Cl)nc2c1ncn2[C@@H]1S[C@H](CO)[C@@H](O)[C@H]1O [Compound 23, (2R,3R,4S,5R)-2-(2-chloro-6-methylaminopurin-9-yl)-5-hydroxymethyltetrahydrothiophene-3,4-diol] | 780 | <10 | 0.8 | – | –

Second part, led by results:

Ki (rA1 adenosine receptor) [nM] | % Displacement rA2a (rA2a adenosine receptor) [%] | Ki (hA3 adenosine receptor) [nM] | Ki (rA2a adenosine receptor; [1]) [nM] | Structure (SMILES) | further results
188 | <10 | – | – | CNC(=O)[C@]1(n2cnc3c(NCc4cccc(I)c4)nc(Cl)nc32)SC[C@H](O)[C@@H]1O [Compound 12, (2R,3S,4R)-2-[2-chloro-6-(3-iodobenzylamino)purin-9-yl)-3,4-dihydroxytetrahydrothiophene-2-carboxylic acid methyl amide] | melting point: 205 to 207 °C
127 | – | 3.2 | 285 | OC[C@H]1S[C@@H](n2cnc3c(NCc4cccc(I)c4)nc(Cl)nc32)[C@H](O)[C@@H]1O [Compound 20, (2R,3R, 4S,5R)-2-[2-chloro-6-(3-iodobenzylamino)purin-9-yl]-5-hydroxymethyltetrahydrothiophene-3,4-diol] | melting point: 112 to 114 °C
140 | – | – | 348 | CNC(=O)[C@H]1S[C@@H](n2cnc3c(NCc4cccc(I)c4)nc(Cl)nc32)[C@H](O)[C@@H]1O [Compound 36] | Ki (hA2a adenosine receptor): 223 nM
